Values of other authors, collected in article PMC5731893, “Therapeutic potential of an anti-angiogenic multimodal biomimetic peptide in hepatocellular carcinoma” (Oncotarget, 2017).

What was measured:
HCC = test system: HCC
Text: Liver cancer is one of the top causes of cancer related mortality in the world and the incidence has been increasing in the US for decades. Surgical resection and/or liver transplantation are the curative options for early diagnosed hepatocellular cancers. However, the prognosis for advanced stages of the disease is dismal owing to a lack of chemotherapeutic options. A series of anti-angiogenic drugs have been undergoing clinical trials for some time but they have not had much success because of drug related toxicity and partly because many cases of HCC are refractory to different ... || Compared to normal liver cells, HCC tumor cells are often associated with the dysregulation of numerous cellular signaling pathways. Expression changes or mutations of growth factor signaling components, specifically c-Met and insulin-like growth factor 1 receptor (IGF1R) are well documented in the pathogenesis of HCC [10]. Overexpression of c-Met and IGF1R is observed in 20-48% or 33% of HCC tumors, respectively, as are increases in the expression of the IGF1R ligand IGF-II [11]. Downstream effectors of insulin receptor substrates 1 (IRS-1) and 2 (IRS-2) have likewise been r ...

HCC tumors = test system: HCC tumors
Text: Angiogenesis is a common feature of many solid tumors and plays a critical role in growth and metastatic progression of HCC. […] Aflibercept speci ... || The dual inhibition of cancer and endothelial cell functions may synergize through the reduction of resistance pathways normally associated with anti-angiogenic therapies. While angiogenesis is important for the exponential growth of cancerous tissue, non-angiogenic processes for tumor vascularization may help bypass the effects of strictly angiogenesis-based therapies. In particular, vessel co-option, or the hijacking of existing vasculature for tumor growth, is observed in models of HCC and has been associated with the diminishing efficacy of extended sorafenib treatment. Tumors from orthoto ...

HCC cells = test system: HCC cells
Text: Liver cancer is one of the top causes of cancer related mortality in the world and the incidence has been increasing in the US for decades. Surgical resection and/or liver transplantation are the curative options for early diagnosed hepatocellular cancers. However, the prognosis for advanced stages of the disease is dismal owing to a lack of chemotherapeutic options. A series of anti-angiogenic drugs have been undergoing clinical trials for some time but they have not had much success because of drug related toxicity and partly because many cases of HCC are refractory to different ...

O=C1NC(=O)[C@@H](c2cn3c4c(cccc24)CCC3)[C@@H]1c1c[nH]c2ccccc12 [tivantinib]
effect on overall survival (HCC; phase II, c-Met positive HCC): significantly improve overall survival

aflibercept: soluble decoy construct containing a fusion of VEGFR1 and VEGFR2 ligand binding domains
effect on tumor growth (HCC tumors; several mouse models of HCC): inhibit tumor growth

CNC(=O)c1cc(Oc2ccc(NC(=O)Nc3ccc(Cl)c(C(F)(F)F)c3)c(F)c2)ccn1 [regorafenib]
increase of median survival (HCC; advanced HCC that progress under sorafenib, phase III): 3 months

CNC(=O)c1cc(Oc2ccc(NC(=O)Nc3ccc(Cl)c(C(F)(F)F)c3)cc2)ccn1 [Sorafenib]
side effects (HCC; human, in vivo): clinically significant
effect on sensitivity to apoptotic stimuli (HCC cells): sensitize the cells to apoptotic stimuli
effect on HCC proliferation (HCC cells; within the S/G2/M phases of the cell cycle): slow HCC proliferation
vessel co-option vs angiogenic mechanisms after administration (HCC tumors; orthotopic mouse models of HCC): significant preference towards vessel co-option over angiogenic mechanisms
